In patent publication US20230270749A1, “THERMO-SENSITIVE PERMEATION ENHANCING FORMULATIONS FOR DRUG DELIVERY” (Children's Medical Center Corporation, priority 2020, published 2023):

Key:
[1] = Solubility / dissolution in poloxamer-CPE formulations; type: physicochemical
[2] = Systemic exposure: ciprofloxacin in plasma after gel application; type: in vivo, chinchilla; settings: after hydrogel treatment
Description: The blood levels of Cip were investigated by collection of plasma samples at predetermined intervals from the transverse sinuses of chinchillas after hydrogel treatment.
NTHi OM chinchilla model and pharmacokinetics. All procedures and manipulations were performed using sedation analgesia under isoflurane chamber induction followed by mask inhalation of 1-3% isoflurane in accordance with approved IACUC protocols at Boston Children's Hospital. […] Isolates of NTHi grown to the mid-log phase were diluted in Hanks' balanced salt solution (HBSS), and about 25 to 75 CFU in […] were directly introduced into each middle ear through the dorsal aspect of the tympanic bullae under aseptic conditions. […] Serial plasma samples were also obtained through the […] during the experiment to determine systemic drug levels.

[3] = type: in vivo, chinchilla; settings: healthy / OM infected chinchillas
Description: Histopathology. Hydrogel formulations were administered onto the tympanic membrane of live healthy/OM chinchillas. After 7 days later, they were euthanized as described elsewhere. The TMs were then excised and immediately fixed in 10% neutral buffered formalin overnight. The sectioned TMs (˜10 μm thick) were stained with hematoxylin and eosin, and evaluated by light microscopy in a blinded fashion.

S. pneumoniae = settings: stated without test or source; cited from earlier work
H. influenza = settings: stated without test or source; cited from earlier work

Row | Structure (SMILES) | highest amount of CTX that can be dissolved in the P188-CPEs formulation while maintaining the desired rheological properties [1] | highest amount of CTX that can be dissolved in the P188-CPEs formulation as a powder form within a short time (<1 minute) ([1]; powder form, <1 minute) | ciprofloxacin in the bloodstream at any time point throughout the course of treatment [2] | ciprofloxacin in the bloodstream at any time point throughout the course of treatment ([2]; listed as Cip) | appearance of H&E-stained TM sections after 7 days [3] | minimum inhibitory concentration for middle ear infections (S. pneumoniae) | minimum inhibitory concentration for middle ear infections (H. influenza)
1 | CO/N=C(\C(=O)N[C@@H]1C(=O)N2C(C(=O)O)=C(CSc3nc(=O)c(=O)[nH]n3C)CS[C@H]12)c1csc(N)n1 [CTX, ceftriaxone sodium] | 42.6% | 28% |  |  |  |  | 
2 | O=C(O)c1cn(C2CC2)c2cc(N3CCNCC3)c(F)cc2c1=O [ciprofloxacin] |  |  | no Ciprofloxacin was detectable | no Cip was detectable | much thicker than healthy TM | about 4 μg/mL | about 4 μg/mL
